Columns and labels:
Format in all cases: cell-based
[1] = system: Pythium ultimum; assay: Pythium ultimum (Damping Off) growth inhibition, microtiter plate, photometric
Procedure: Pythium ultimum (Damping Off):
Mycelial fragments of the fungus, prepared from a fresh liquid culture, were directly mixed into nutrient broth (potato dextrose broth). After placing a (DMSO) solution of the test compounds into a microtiter plate (96-well format) the nutrient broth containing the fungal spores was added.

[2] = system: Rhizoctonia solani; assay: Rhizoctonia solani (Foot Rot, Damping-Off) growth inhibition, microtiter plate, photometric; conditions: applied alone
Procedure: Rhizoctonia solani (Foot Rot, Damping-Off):
Mycelial fragments of the fungus from cryogenic storage were directly mixed into nutrient broth (potato dextrose broth). After placing a (DMSO) solution of the test compounds into a microtiter plate (96-well format) the nutrient broth containing the fungal spores was added.

[3] = system: Botrvtis cinerea; assay: Botrvtis cinerea (Gray Mould) growth inhibition, microtiter plate, photometric; conditions: alone
Procedure: Botrvtis cinerea (Gray Mould):
(§1) Conidia of the fungus from cryogenic storage were directly mixed into nutrient broth (potato dextrose broth). After placing a (DMSO) solution of the test compounds into a microtiter plate (96-well format) the nutrient broth containing the fungal spores was added.

[4] = system: Glomerella lagenarium (syn. Colletotrichum lagenarium); assay: Glomerella lagenarium (Anthracnose of Cucurbits) growth inhibition, microtiter plate, photometric; conditions: alone
Procedure: Glomerella lagenarium (syn. Colletotrichum lagenarium), Anthracnose of Cucurbits:
as §1

[5] = system: Septoria tritici; assay: Septoria tritici (Leaf Blotch) growth inhibition, microtiter plate, photometric; conditions: alone
Procedure: Septoria tritici (Leaf Blotch):
as §1

[6] = system: Mycosphaerella arachidis (syn. Cercospora arachidicola); assay: Mycosphaerella arachidis (Brown Leaf Spot of Groundnut) growth inhibition, microtiter plate, photometric; conditions: alone
Procedure: Mycosphaerella arachidis (syn. Cercospora arachidicola), Brown Leaf Spot of Groundnut (Peanut):
as §1

[7] = system: Fusarium culmorum; assay: Fusarium culmorum (Root Rot) growth inhibition, microtiter plate, photometric; conditions: single compound, 48 hrs, 24° C.
Procedure: Fusarium culmorum (Root Rot):
as §1

Measured: AVERAGE DEAD IN %

Cc1cc(C2=NOC(c3cc(Cl)cc(Cl)c3)(C(F)(F)F)C2)ccc1C(=O)NC1CS(=O)(=O)C1 (racemic) [A8]
0%: [1]; single compound at 0.078125 ppm AI | [1]; single compound at 0.15625 ppm AI | [1]; single compound at 0.3125 ppm AI | [1]; single compound at 0.625 ppm AI | [1]; single compound at 1.25 ppm AI | [1]; single compound at 2.5 ppm AI | [1]; single compound at 5 ppm AI | [1]; single compound at 10 ppm AI | [1]; single compound at 20 ppm AI | [2]; 0.0390625 ppm AI | [2]; 0.078125 ppm AI | [2]; 0.15625 ppm AI | [2]; 0.3125 ppm AI | [2]; 0.625 ppm AI | [2]; 1.25 ppm AI | [2]; 2.5 ppm AI | [2]; 5 ppm AI | [2]; 10 ppm AI | [2]; 20 ppm AI | [3]; 0.078125 ppm AI | [3]; 0.15625 ppm AI | [3]; 0.3125 ppm AI | [3]; 0.625 ppm AI | [3]; 1.25 ppm AI | [3]; 2.5 ppm AI | [3]; 5 ppm AI | [3]; 10 ppm AI | [3]; 20 ppm AI | [4]; 0.078125 ppm AI | [4]; 0.15625 ppm AI | [4]; 0.3125 ppm AI | [4]; 0.625 ppm AI | [4]; 1.25 ppm AI | [4]; 2.5 ppm AI | [4]; 5 ppm AI | [4]; 10 ppm AI | [4]; 20 ppm AI | [5]; 0.0390625 ppm AI | [5]; 0.078125 ppm AI | [5]; 0.15625 ppm AI | [5]; 0.3125 ppm AI | [5]; 0.625 ppm AI | [5]; 1.25 ppm AI | [5]; 2.5 ppm AI | [5]; 5 ppm AI | [5]; 10 ppm AI | [5]; 20 ppm AI | [6]; 0.0390625 PPM AI | [6]; 0.078125 PPM AI | [6]; 0.15625 PPM AI | [6]; 0.3125 PPM AI | [6]; 0.625 PPM AI | [6]; 1.25 PPM AI | [6]; 2.5 PPM AI | [6]; 5 PPM AI | [6]; 10 PPM AI | [6]; 20 PPM AI | [7]; 2.5 PPM AI | [7]; 5 PPM AI | [7]; 10 PPM AI | [7]; 20 PPM AI
